Read-outs that look alike come from different tables or passages of the source.
How the values were obtained:
[1] = system: Ggt; experiment: In vitro assay: inhibition of mycelial growth of Ggt on minimal media agar; assay type: cell-based, Gaeumannomyces graminis var. tritici; details: Gaeumannomyces graminis, read-out: % Control of Ggt In Vitro
Experimental: The test compounds (0.25 mL of an appropriate stock solution in acetone) were incorporated into 25 mL minimal media agar [prepared by autoclaving a solution of 17.5 g Czapek Dox broth (Difco), 7.5 g purified agar or Bacto-agar (Difco), and 500 mL distilled/deionized water, and then adding 50 μL of 1 mg/mL thiamine hydrochloride and 50 μL of 1 mg/mL biotin in 5% ethanol] and plates were prepared.
Each plate was inoculated by placing in a triangular shape three 4 mm plugs of Ggt grown on the minimal media agar described above. The plates were incubated in the dark at 19-20° C. for 4-5 days. The growth of the fungus was measured as the diameter of the mycelial growth and the result expressed as Percent Inhibition, calculated as [1−[(mm growth on treated plate−4)/(mm growth on control plate−4)]]×100.

[2] = system: Ggt; experiment: 4 Week In Vivo Seed Treatment Assay on "Bergen" wheat in soil infested with Ggt; parameters: species or system Gaeumannomyces graminis var. tritici
Experimental: The test compounds were tested for control of Ggt on “Bergen” varieties of wheat grown in 3 inch square pots containing soil (equal to thirds of Metro-mix, sand, and silt-loam filed soil, all steam sterilized). Seeds were treated with a solution of a test compound in acetone. Using a 10,000 ppm stock for each compound, the following serial dilutions were prepared.
When 1 mL of the stock and dilutions was applied to 10 gm of seed, the resultant application rates were 100 and 25 g of active ingredient per 100 kg of seed.
A treatment jar was rinsed 2 times with 3 mL of acetone. The 1 mL of the solution was swirled to cover the base of the jar. 10 gm of seed was added to the jar and capped, after which the jar was swirled and shaken until the seeds got a rapid and even coverage. After about 30-50 seconds, the lid was removed while the shaking was continued. After 1 minute, the jar was set aside to dry. When dry, the seed was poured into an envelope for storage until planting.
Compounds were tested for control of Ggt on “Bergen” varieties of wheat grown in 3 inch square pots containing soil infested with Ggt. The infestation was accomplished by mixing the soil with an inoculum prepared by growing Ggt on infested sterile oats (400 cc whole oats, 350 mL deionized water, autoclaved). After a one month incubation period at room temperature, the oats were dried and mixed with the soil at 4% v/v.
The roots were harvested, washed, and rated after 4 weeks. Each treatment was assigned a percent (%) diseased root area value using 1, 5, 10, 20, 30, 40, 50, 60, 80, or 100% ratings. Each pot of plants got a single rating.

[3] = 0.01 ppm in agar, 4-5 days at 19-20° C.
[4] = 0.1 ppm in agar, 4-5 days at 19-20° C.
[5] = 1 ppm in agar, 4-5 days at 19-20° C.
[6] = 10 ppm in agar, 4-5 days at 19-20° C.
[7] = 25 g ai/100 kg seed, roots rated after 4 weeks
[8] = 100 g ai/100 kg seed, roots rated after 4 weeks

SMILES	inhibition of growth at 0.1 ppm [1, 4] [%]	inhibition of growth at 1 ppm [1, 5] [%]	inhibition of growth at 10 ppm [1, 6] [%]	other results
CCCNC(=O)/C(=N\OC(C)(C)C)c1ccccc1 [Example 1]	96	100	100	inhibition of growth at 0.01 ppm [1, 3]: 4%; % Control of Ggt In Vivo [2, 7]: 71%; % Control of Ggt In Vivo [2, 8]: 79%
CCCNC(=O)/C(=N/OC(C)(C)C)c1ccccc1 [Example 2]	27	0	0	
CCCNC(=O)/C(=N\NC(C)(C)C)c1ccccc1 [Example 3]	19	89	97	% Control of Ggt In Vivo [2, 7]: 21%; % Control of Ggt In Vivo [2, 8]: 0%
CCCNC(=O)/C(=N/NC(C)(C)C)c1ccccc1 [Example 4]	0	0	43	
CCCNC(=O)/C(=N\OC(C)(C)CC)c1ccccc1 [Example 5]	100	100	100	inhibition of growth at 0.01 ppm [1, 3]: 59%
CCCNC(=O)/C(=N/OC(C)(C)CC)c1ccccc1 [Example 6]	2	2	20	
CCCNC(=O)/C(=N\OC(C)(CC)CC)c1ccccc1 [Example 7]	98	100	100	inhibition of growth at 0.01 ppm [1, 3]: 16%
CCCNC(=O)/C(=N/OC(C)(CC)CC)c1ccccc1 [Example 8]	2	80	98	
CCCNC(=O)C(=NOC(C)(C)C)c1ccc(C)cc1 [Example 9]	7	37	80	
CCCNC(=O)C(=NOC(C)(C)C)c1cccc(C)c1 [Example 10]	5	32	80	
CCCNC(=O)C(=NOC(C)(C)C)c1ccccc1F [Example 11]	0	43	77	
C=CCNC(=O)C(=NOC(C)(C)C)c1ccccc1 [Example 12]	67	98	100	
C=CCNC(=O)C(=NNC(C)(C)C)c1ccccc1 [Example 13]	25	96	96	
CCCNC(=O)/C(=N\OC(C)(C)C)c1cccs1 [Example 14]	96	100	100	
CCCNC(=O)/C(=N/OC(C)(C)C)c1cccs1 [Example 15]	10	20	94	
CCCNC(=O)C(=NOC(C)(C)C)c1ccco1 [Example 16]	24	51	92	
C=CCNC(=O)c1c([Si](C)(C)C)sc(C)c1C [Standard, reference compound]				inhibition of growth at 0.01 ppm [1]: 100%; inhibition of growth at 0.1 ppm [1]: 100%; inhibition of growth at 1 ppm [1]: 100%; inhibition of growth at 10 ppm [1]: 100%; % Control of Ggt In Vivo ([2]; 25, roots rated after 4 weeks): 90%; % Control of Ggt In Vivo ([2]; 100, roots rated after 4 weeks): 93%
